From PMC10290335 (Malaria Journal, 2023) come the findings set out here.

Data set [1] relates to Anopheles stephensi mosquitoes. Kind of data set: 3-day LC50 in Anopheles stephensi (membrane feeding, dilutions). The data set is classed as in vivo. As to conditions: 72 h after blood feeding; Cmax = maximal peak area in human PK samples. Here is the method:
A pilot test was performed to evaluate optimal dilutions matching the expected LC50 values (data not shown).
Student's t test was adopted to test the significance of all mean survival differences between groups, using the R package ggsignif (version 0.6.4). Survival analyses, summary and visualisation of survival analysis were computed using the GNU R packages survival (version 3.1-8) and survminer (version 0.4.9). Replicates were pooled and analysed by the logrank test and the hazard ratio with 95% confidence intervals. LC50 in An. stephensi mosquito were approximated with regression analysis, using GNU R package drc (version 3.0-1) for analysis of dose–response curves (Additional file 1: Fig. S3). The time above LC50 estimation (Additional file 1: Fig. S4) was computed using the GNU R package data.table (version 1.14.6).

In data set [2] the test system is Anopheles stephensi mosquitoes. Kind of data set: Anopheles stephensi membrane feeding screening assay (survival and activity). The data set is classed as in vivo. Conditions: for Average activity score: score +2 flying, +1 moving, 0 dead; for activity against An. stephensi: at Cmax levels observed in clinical PK samples; for mean survival of mosquitoes after blood meal: blood meal at Cmax level; for mosquitoes dead after 72 h: blood meal at Cmax level (ivermectin 50 ng/mL), 72 h after treatment. Here is the method:
The final DMSO content in blood was 0.1%, which was also the DMSO concentration used for the negative control assays (0.1% DMSO in blank blood). Inclusion of blank fractions as additional negative controls were not considered, because it would not have been feasible to also test the corresponding blank fraction for each metabolite fraction (F1–F9). The blood preparations were rotated at room temperature for 20 min to ensure a uniform metabolite distribution (Rotator Genie, Scientific Industries, Bohemia, USA). The dissolution of the metabolites was confirmed by LC–MS/MS.
Around 50–70 female mosquitoes aged 5–10 days post-emergence were transferred with a mouth aspirator into 20 mL paper cups. A piece of mosquito netting was used to cover the cups. Mosquitoes were starved for 24 h before treatment. The mosquito blood meals were heated in a water bath (SAHARA PPO S5P Heated Bath Circulators, Thermo Fisher Scientific, New Hampshire, USA) for 20 min at 39 °C. A Petri dish (35 mm × 10 mm, BD, Franklin Lakes, USA) was filled with 3 mL of warm blood, sealed with a piece of sealing film (Parafilm®, Huberlab AG, Aesch, Switzerland). The Petri dish was placed upside down on top of the net sealing the paper cup. Female mosquitoes were allowed to feed for 20 min on the blood through the net and the sealing film. The feeding was conducted in a climate chamber (HPP110, Memmert GmbH + Co.KG, Schwabach, Germany) at 27 °C, 70% humidity, and 30% light intensity. After feeding, the cups were put on ice to immobilise the mosquitoes and only the fully engorged mosquitoes were selected for the assay. The mosquitoes were returned to the climate chamber to assess their activity and survival for 3 days.
In the framework of screening assays, mosquitoes were treated with blood containing each metabolite corresponding to Cmax levels observed in PK samples. […] In screening assays, eleven treatments were evaluated with three replicates using three batches of 50–70 mosquitoes.

A short description of data set [3]: Clinical pharmacokinetics of ivermectin metabolites in blood of healthy volunteers. In kind it is in vivo, human. As to conditions: for Cmax [ratio]: area/internal standard area ratio; for Cmax [ratio] / Half-life / MRTlast / Tmax: whole blood, 12 subjects, mean ± SE; for Cmax [ratio] / Half-life / MRTlast: 12 mg ivermectin, NCA; for Tmax: single oral 12 mg ivermectin. How it is done:
Peripheral venous blood samples were collected before dosing and after 1, 2, 4, 6, 8, 12, 24, 48 and 72 h. Blood samples (50 µL) were extracted by the addition of 150 µL ISTD solution. Samples were mixed for 1 min and centrifuged for 30 min at 3220×g and 15 °C (5810 R centrifuge). Twenty microlitres of supernatant were injected into the LC–MS/MS system to determine the signal intensity of the metabolites.
The different LC–MS/MS settings were applied for the metabolism, pharmacokinetic and metabolite fractioning assays (Additional file 1: Table S1, S2, S3). All analyses were performed on a modular HPLC (Shimadzu, Kyoto, Japan) composed of four pumps (2 × LC-30AD, 2 × LC-20AD), an autosampler (SIL 30-AC MP), a system controller (CBM-20A), two degassing units (DGU-20A5 and DGU-20A3R), a column oven (CTO-20AC), a low-pressure valve (FCV-12AH), and a fraction collector (FRC-12A). The HPLC system was connected to an API 5000 triple quadrupole mass spectrometer (AB Sciex, Ontario, Canada) that was equipped with a turbo electrospray ionization source. The system was operated with Analyst Software 1.7 (AB Sciex) and acquired data were analysed using MultiQuant Software 3.0.3 (AB Sciex).
The integral method “linear up log down” was used on area/internal standard area ratio.
In total, three T0 blank blood samples originating from different PK study participants were used to resuspend the metabolites (Additional file 1: Table S5). The signal intensity was recorded for every metabolite by extracting the 50 µL blood with 150 µL of ISTD solution. The metabolite peak area was determined by LC–MS/MS (see section LC-MS/MS analysis of ivermectin). Moreover, the PK samples of all study participants were equally extracted and analysed to derive the maximal blood level (Cmax) from the blood level-time curves. Afterwards, the mean metabolite peak area of the spiked blank blood was compared with the mean peak area of the Cmax samples (Additional file 1: Table S5). The amount of each metabolite fraction was either reduced or increased to match the peak area of Cmax samples. If the metabolite was not detectable in PK samples, the amount of metabolite was adjusted to the lower limit of detection of the method. In this case, blank blood was spiked with the metabolite fraction to receive a signal intensity that is three times larger than the corresponding noise level.

For the next data set, the target named is T1, rh CYP3A5 supersomes (Homo sapiens, UniProt P20815).
T1 construct: purchased Corning Life Sciences B.V. (Amsterdam, The Netherlands)
Kind of data set: Ivermectin metabolism by recombinant human CYP3A5 supersomes. The data set is classed as in vitro ADME. Conditions: 10 µM ivermectin. Here is the method: (§1) The assay mixture was heated for 10 min at 37 °C in a Thermomixer 5436 (Eppendorf, Hamburg, Germany) and the reaction was initiated by the addition of supersomes. Samples (50 μL) were taken after 0, 15, 30, 45, and 60 min. […] After centrifugation (30 min at 3220×g and 15 °C, 5810 R Eppendorf centrifuge), sample supernatants (10 µL) were analysed by LC–MS/MS. Metabolite production was quantified by dividing the metabolite peak area with the ISTD peak area. Each metabolism assay was performed in triplicate.

A further data set has as its target T2, rh CYP3A4 supersomes (Homo sapiens, UniProt P08684).
T2 construct: purchased Corning Life Sciences B.V. (Amsterdam, The Netherlands)
Kind of data set: Ivermectin metabolism by recombinant human CYP3A4 supersomes. The data set is classed as in vitro ADME. As to conditions: 10 µM ivermectin. Here is the method: as §1

[4] abbreviates: mean of PK subjects 1-12, 50 µL blood.

“And” between values parts separate entries of the source, which are not always exact repeats. Identical values can stand only once. “Also recorded” adds a separate entry of the source.

T1 sequence (P20815 whole entry): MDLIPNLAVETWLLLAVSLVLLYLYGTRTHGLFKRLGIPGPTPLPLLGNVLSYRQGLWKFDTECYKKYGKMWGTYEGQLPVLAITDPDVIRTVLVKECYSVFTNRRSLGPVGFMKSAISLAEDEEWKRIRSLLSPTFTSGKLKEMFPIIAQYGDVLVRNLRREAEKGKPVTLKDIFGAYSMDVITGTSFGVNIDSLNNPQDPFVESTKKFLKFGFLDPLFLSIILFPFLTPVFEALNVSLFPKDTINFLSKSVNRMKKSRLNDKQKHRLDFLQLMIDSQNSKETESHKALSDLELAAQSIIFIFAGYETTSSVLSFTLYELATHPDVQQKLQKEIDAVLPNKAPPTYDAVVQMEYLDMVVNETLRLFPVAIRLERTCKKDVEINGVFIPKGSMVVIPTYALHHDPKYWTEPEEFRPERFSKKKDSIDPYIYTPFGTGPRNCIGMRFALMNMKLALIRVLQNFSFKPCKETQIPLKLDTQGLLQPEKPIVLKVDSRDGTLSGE
T2 sequence (P08684 whole entry): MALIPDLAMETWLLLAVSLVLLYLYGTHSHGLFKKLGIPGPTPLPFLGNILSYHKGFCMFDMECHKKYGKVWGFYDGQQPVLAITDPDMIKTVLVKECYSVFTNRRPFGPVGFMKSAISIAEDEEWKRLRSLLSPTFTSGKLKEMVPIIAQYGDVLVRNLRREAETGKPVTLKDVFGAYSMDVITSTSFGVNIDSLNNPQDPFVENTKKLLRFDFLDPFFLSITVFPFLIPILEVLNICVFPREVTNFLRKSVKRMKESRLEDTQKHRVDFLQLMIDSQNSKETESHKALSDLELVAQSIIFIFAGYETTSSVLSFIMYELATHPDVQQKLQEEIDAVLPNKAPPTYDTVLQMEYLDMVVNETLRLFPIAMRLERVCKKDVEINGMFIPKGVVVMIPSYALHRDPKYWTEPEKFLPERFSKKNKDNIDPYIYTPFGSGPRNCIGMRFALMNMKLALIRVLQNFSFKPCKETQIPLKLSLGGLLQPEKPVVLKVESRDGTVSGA

For orientation: Tmax means the time from dosing to the highest level. On to `CCC(C)C1OC2(CCC1C)CC1CC(CC=C(C)C(OC3CC(OC)C(OC4CC(O)C(O)C(C)O4)C(C)O3)C(C)C=CC=C3COC4C(O)C(C)=CC(C(=O)O1)C34O)O2` (stereo not drawn) [M1, 3″-O-desmethyl-H2B1a], for which the “3-day LC50” value in data set [1] is recorded as 0.25 Cmax. The Average activity score in data set [2] (0 h post feeding) is 2.00; in data set [2] (24 h post feeding), 1.07 and 1.07 ± 0.04; in data set [2] (48 h post feeding), 0.23 and 0.23 ± 0.02; in data set [2] (72 h post feeding), 0.01. For the same compound, the “activity against An. stephensi” value in data set [2] was “active”. The “mean survival of mosquitoes after blood meal” value in data set [2] is reported as “decreased”. Moreover, the “mosquitoes dead after 72 h” value in data set [2] was found to be 98.8%. For the same compound, the “Observed Cmax, peak area” value in data set [3] (PK subject 1, 50 µL blood) is 1.95E+04 counts; in data set [3] (PK subject 2, 50 µL blood), 1.01E+04 counts; in data set [3] (PK subject 3, 50 µL blood) it was 1.39E+04 counts; in data set [3] (PK subject 4, 50 µL blood) it was 8.48E+03 counts; in data set [3] (PK subject 5, 50 µL blood), 9.52E+03 counts; in data set [3] (PK subject 6, 50 µL blood) it was 2.33E+04 counts. Moreover, the “Observed Cmax, peak area” value in data set [3] (PK subject 7, 50 µL blood) came to 1.56E+04 counts; in data set [3] (PK subject 8, 50 µL blood), 1.79E+04 counts; in data set [3] (PK subject 9, 50 µL blood) it was 1.28E+04 counts; in data set [3] (PK subject 10, 50 µL blood), 1.60E+04 counts; in data set [3] (PK subject 11, 50 µL blood), 2.28E+04 counts; in data set [3] (PK subject 12, 50 µL blood), 1.78E+04 counts. Further, the “Observed Cmax, peak area” value in data set [3] (setting [4]) came to 1.56E+04 counts. For the same compound, the “Cmax [ratio]” value in data set [3] is 0.011 ± 0.001 ratio. Besides, the Half-life in data set [3] is 54.2 ± 4.7 h. Besides, the MRTlast in data set [3] is on record as 33.8 ± 0.9 h. For the same compound, the Tmax in data set [3] was 7.0 ± 0.5 h.

In the case of `CCC(C)C1OC2(CCC1C)CC1CC(CC=C(C)C(OC3CC(OC)C(OC4CC(OC)C(O)C(C)O4)C(C)O3)C(C)C=CC=C3COC4C(O)C(CO)=CC(C(=O)O1)C34O)O2` (stereo not drawn) [M2, 4-hydroxy-H2B1a], in data set [1], the “3-day LC50” value was found to be 0.21 Cmax. For the same compound, the Average activity score in data set [2] (0 h post feeding) is 2.00; in data set [2] (24 h post feeding), 1.20 and 1.20 ± 0.12; in data set [2] (48 h post feeding), 0.28 and 0.28 ± 0.05; in data set [2] (72 h post feeding) it was 0. The “activity against An. stephensi” value in data set [2] is recorded as “active”. Also, in data set [2], the “mean survival of mosquitoes after blood meal” value is listed as “decreased”. In addition, the “mosquitoes dead after 72 h” value in data set [2] amounted to 100%. Besides, the “Observed Cmax, peak area” value in data set [3] (PK subject 1, 50 µL blood) was found to be 1.84E+04 counts; in data set [3] (PK subject 2, 50 µL blood), 9.36E+03 counts; in data set [3] (PK subject 3, 50 µL blood), 1.31E+04 counts; in data set [3] (PK subject 4, 50 µL blood), 7.42E+03 counts; in data set [3] (PK subject 5, 50 µL blood), 9.63E+03 counts; in data set [3] (PK subject 6, 50 µL blood), 2.00E+04 counts. Further, the “Observed Cmax, peak area” value came out at 1.39E+04 counts in data set [3] (PK subject 7, 50 µL blood); 1.25E+04 counts in data set [3] (PK subject 8, 50 µL blood); 1.08E+04 counts in data set [3] (PK subject 9, 50 µL blood); 1.50E+04 counts in data set [3] (PK subject 10, 50 µL blood); 1.64E+04 counts in data set [3] (PK subject 11, 50 µL blood); 1.59E+04 counts in data set [3] (PK subject 12, 50 µL blood). Further, in data set [3] (setting [4]), the “Observed Cmax, peak area” value turned out to be 1.35E+04 counts. For the same compound, the “Cmax [ratio]” value in data set [3] stood at 0.010 ± 0.0010 ratio. Further, in data set [3], the Half-life turned out to be 31.9 ± 3.4 h. Besides, the MRTlast in data set [3] worked out at 25.8 ± 0.7 h. For the same compound, in data set [3], the Tmax came out at 6.3 ± 0.3 h.

For `CC[C@H](C)[C@H]1O[C@]2(CC[C@@H]1CO)C[C@@H]1C[C@@H](C/C=C(\C)[C@@H](O[C@H]3C[C@H](OC)[C@@H](O)[C@H](C)O3)[C@@H](C)/C=C/C=C3\CO[C@@H]4[C@H](O)C(C)=C[C@@H](C(=O)O1)[C@]34O)O2` [M5, 24-hydroxy-H2B1a monosaccharide], the Average activity score was found to be 2.00 in data set [2] (0 h post feeding), 1.90 in data set [2] (24 h post feeding), 1.86 in data set [2] (48 h post feeding) and 1.81 in data set [2] (72 h post feeding). For the same compound, the “Observed Cmax, peak area” value in data set [3] (PK subject 1, 50 µL blood) worked out at 7.86E+02 counts; in data set [3] (PK subject 2, 50 µL blood), 5.85E+02 counts; in data set [3] (PK subject 3, 50 µL blood), 1.01E+03 counts; in data set [3] (PK subject 4, 50 µL blood) it was 7.22E+02 counts; in data set [3] (PK subject 5, 50 µL blood) it was 6.06E+02 counts; in data set [3] (PK subject 6, 50 µL blood), 1.25E+03 counts. The “Observed Cmax, peak area” value was 8.58E+02 counts in data set [3] (PK subject 7, 50 µL blood); 6.84E+02 counts in data set [3] (PK subject 8, 50 µL blood); 6.59E+02 counts in data set [3] (PK subject 9, 50 µL blood); 7.23E+02 counts in data set [3] (PK subject 10, 50 µL blood); 8.95E+02 counts in data set [3] (PK subject 11, 50 µL blood); 7.29E+02 counts in data set [3] (PK subject 12, 50 µL blood). Moreover, the “Observed Cmax, peak area” value in data set [3] (setting [4]) amounted to 7.92E+02 counts. Besides, in data set [3], the Tmax is listed as 6.4 ± 0.4 h.

For the compound `CC[C@H](C)[C@H]1O[C@]2(CC[C@@H]1CO)C[C@@H]1C[C@@H](C/C=C(\C)[C@@H](O[C@H]3C[C@H](OC)[C@@H](O[C@H]4C[C@H](OC)[C@@H](O)[C@H](C)O4)[C@H](C)O3)[C@@H](C)/C=C/C=C3\CO[C@@H]4[C@H](O)C(C)=C[C@@H](C(=O)O1)[C@]34O)O2` [M9, 24-hydroxy-H2B1a], the “metabolite formation by CYP3A5” value on rh CYP3A5 supersomes is “mainly produced by CYP3A5; also recorded: very effective”. The “metabolite formation by CYP3A4” value on rh CYP3A4 supersomes was “only minor amounts”. The Average activity score in data set [2] (0 h post feeding) came out at 2.00; in data set [2] (24 h post feeding), 1.92; in data set [2] (48 h post feeding), 1.87; in data set [2] (72 h post feeding), 1.64. For the same compound, the “detection in pharmacokinetic samples” value in data set [3] (human blood after single oral 12 mg ivermectin) was “Only traces”.
